Results reported in article PMC12363935, “Unc-51 Like Kinase 3 (ULK3) is essential for autophagy and cell survival in multiple myeloma” (Research Square, 2025).
“And” between values parts separate entries of the source, which are not always exact repeats. Equal values may be shown once.

System: primary CD138+ MM cells
Test: EMMA ex vivo platform, live cell imaging, 96 hours, collagen matrix with bone marrow stroma and patient plasma
Format: cell-based
Parameters: scale not given here
Source text: For clinical robustness, we tested the activity of MA9 in MM patient samples using our ex vivo mathematical myeloma advisor (EMMA) platform (Supplementary Table 1). […]
For these assays, we used a novel EMMA platform developed at Moffitt. Further details are included in the supplemental Materials. […]
400 Ex vivo drug sensitivity characterization
401 An ex vivo assay was used to quantify the chemosensitivity of primary MM cells. Fresh BM
402 aspirate cells were enriched for CD138+ expression using Miltenyi (Bergisch Gladbach, Germany)
MM cells (CD138+) were seeded in Corning
404 Cell BIND 384 well plates (Corning, NY) with collagen I and previously established human-
407 inactivated), penicillin/streptomycin, and patient-derived plasma (10%, freshly obtained from
409 added using a robotic plate handler so that every drug/combination was tested at 5 (fixed
410 concentration ratio, for combinations) concentrations (1:3 serial dilution) in two replicates.
411 Negative controls (supplemented growth media with and without the vehicle control dimethyl
412 sulfoxide [DMSO]) were included, as well as positive controls for each drug (cell line MM1.S at
413 highest drug concentration). Plates were placed in a motorized stage microscope (EVOS Auto FL,
414 Life Technologies, Carlsbad, CA) equipped with an incubator and maintained at 5% CO2 and 37
415 °C. […]
Digital image analysis computes the percent
418 viability of MM cells for each time point and experimental condition (drug and concentration)

CC(C)C[C@H](NC(=O)[C@H](Cc1ccccc1)NC(=O)c1cnccn1)B(O)O [BTZ, bortezomib]
AUC (Pt648, LRMM): 48.724 | AUC (Pt652, LRMM): 65.980 | AUC (Pt655, LRMM): 29.968 | AUC (Pt663, LRMM): 45.417 | AUC (Pt665, LRMM): 47.552 | AUC (Pt666, LRMM): 37.470 | AUC (Pt669, ERMM): 37.041 | AUC (Pt672, NDMM): 45.751 | AUC (Pt677, NDMM): 30.916 and 33.959 | AUC (Pt680, ERMM): 39.728 and 39.652 | AUC (Pt685, ERMM): 34.249 | AUC (Pt689, NDMM): 40.257 | AUC (Pt691, LRMM): 38.965 | AUC (Pt693, SMOL): 87.905 | AUC (Pt694, NDMM): 31.313 | AUC (Pt695, LRMM): 46.540 | AUC (Pt697, NDMM): 44.112 | AUC (Pt700, NDMM): 42.763 and 44.093 | AUC (Pt707, LRMM): 60.814 | AUC (Pt737, MGUS): 35.864 | AUC (Pt738, NDMM): 46.001 | AUC (Pt740, SMOL): 32.547 | AUC (Pt745, NDMM): 47.650 | AUC (Pt852, NDMM): 23.262 | AUC (Pt853, ERMM): 63.604 and 64.834 | AUC (Pt856, NDMM): 36.749 | AUC (Pt866, NDMM): 36.635 | AUC (Pt875, NDMM): 45.303 | AUC (Pt888, LRMM): 100.000 | AUC (Pt893, LRMM): 100.000 | AUC (Pt899, SMOL): 59.818 | AUC (Pt906, NDMM): 59.784 | AUC (Pt909, LRMM): 29.196 | AUC (Pt912, PCL): 26.800 | AUC (Pt917, LRMM): 78.984 | AUC (Pt920, LRMM): 42.040 | AUC (Pt923, LRMM): 45.019 | AUC (Pt932, LRMM): 28.145 | AUC (Pt933, LRMM): 39.573 | AUC (Pt935, NDMM): 31.629 | AUC (Pt936, LRMM): 45.292 | AUC (Pt937, NDMM): 46.111 and 46.768 | AUC (Pt940, LRMM): 43.043 | AUC (Pt956, NDMM): 64.107 and 61.177 | AUC (Pt957, LRMM): 82.570 | AUC (Pt961, NDMM): 70.805 and 67.849
